The results in this text go back to BindingDB's records for doi:10.1016/j.bioorg.2016.11.007 (University of Karachi, 2017).

The target in experiment [1] is T1, Thymidine phosphorylase (Escherichia coli (strain K12), UniProt P07650). Description: Thymidine Phosphorylase Inhibition Assay. As to conditions: 30 °C. As to the method: TP inhibition assay was performed spectrophotometrically in 96-well plate. […] The total reaction volume was 200 μL. 20 μL of TP enzyme (0.058 unit/well) was incubated with 10 μL of test compounds (0.5 mM) for 10 min at 30 C. […] Every experiment was run in triplicate.
T1 sequence (P07650 whole entry): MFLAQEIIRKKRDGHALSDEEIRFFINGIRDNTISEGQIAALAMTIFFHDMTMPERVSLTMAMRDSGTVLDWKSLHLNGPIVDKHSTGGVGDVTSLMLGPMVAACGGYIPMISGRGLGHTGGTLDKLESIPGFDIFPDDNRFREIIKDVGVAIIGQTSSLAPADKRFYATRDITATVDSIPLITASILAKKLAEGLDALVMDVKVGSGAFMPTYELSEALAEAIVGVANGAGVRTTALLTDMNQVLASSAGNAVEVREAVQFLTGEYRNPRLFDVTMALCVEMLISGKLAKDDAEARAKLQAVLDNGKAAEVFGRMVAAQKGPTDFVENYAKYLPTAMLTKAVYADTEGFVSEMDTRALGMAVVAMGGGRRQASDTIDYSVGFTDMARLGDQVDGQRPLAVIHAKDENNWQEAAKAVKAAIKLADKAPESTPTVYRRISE

The target of experiment [2] is T1, Thymidine phosphorylase. Description: Kinetic Assay. As to conditions: 30 °C.

As a reminder, the IC50 is the concentration that gives 50% inhibition. Read a low IC50 as greater potency. In turn, `Cc1cn([C@H]2C[C@H](OC(=O)c3ccc(Cl)cc3Cl)[C@@H](COC(=O)c3ccc(Cl)cc3Cl)O2)c(=O)[nH]c1=O` [5'-O-(2'',4''-Dichlorobenzoyl)-thymidine-3'-O-2'',4''-dichlorobenzoate (13)] gave an IC50 against Thymidine phosphorylase [1] of 146 µM. The same measure, in the same setting: then `COc1ccccc1C(=O)OC[C@H]1O[C@@H](n2cc(C)c(=O)[nH]c2=O)C[C@@H]1O` [5'-O-(2''-Methoxybenzoyl)-thymidine (11)], with 90 µM. In general, Ki refers to a dissociation constant, usually derived from enzyme kinetics or from competition with a known ligand. Low readings indicate a stronger hold on the target, high ones a looser hold on the target. At Thymidine phosphorylase [2], `Cc1cn([C@H]2C[C@H](O)[C@@H](COC(=O)c3cccc(Br)c3)O2)c(=O)[nH]c1=O` [5'-O-(3''-Bromobenzoyl)-thymidine (15)] gave a Ki of 11.4 µM. This compound displayed an IC50 against Thymidine phosphorylase [1] of 33.3 µM. The like results for `Cc1cn([C@H]2C[C@H](OC(=O)c3ccc(Br)cc3)[C@@H](COC(=O)c3ccc(Br)cc3)O2)c(=O)[nH]c1=O` [5'-O-(4''-Bromobenzoyl)-thymidine-3'-O-4''-bromobenzoate (14)] were, in that order, 7.81 µM and 7.5 µM. The matching figures for `COc1ccc(C(=O)OC[C@H]2O[C@@H](n3cc(C)c(=O)[nH]c3=O)C[C@@H]2O)cc1` [5'-O-(4''-Methoxybenzoyl)-thymidine (10)]: 12.8 µM and 18.8 µM. The like results for `Cc1ccc(C(=O)OC[C@H]2O[C@@H](n3cc(C)c(=O)[nH]c3=O)C[C@@H]2O)cc1` [5'-O-(4''-Methylbenzoyl)-thymidine (4)] were, in that order, 12.5 µM and 18.5 µM.
